From PubChem BioAssay (NCI) come the findings set out here.

Each structure is given as a SMILES string.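 How tested: cells in 96-well plates exposed to compound for 48 hours at five concentrations. At the GI50, growth is halved. TGI marks complete inhibition of growth.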

The TGI is the concentration at which net growth stops. Higher therefore signals lower sensitivity of the cells. For orientation: GI50 means the concentration at which growth is held to half of that of the control.

Some test systems named below: ACHN renal; SF-295 CNS; SK-MEL-2 melanoma; SNB-19 CNS; SNB-75 CNS; SK-MEL-5 melanoma; HT29 colon; PC-3 prostate; DLD-1 colon; M19-MEL melanoma.
Common to all, as to assay: DTP human tumour cell line panel, 48 h

On to `N#CCCN(CCCN(CCCN(C(=O)Nc1ccccc1)c1ccccc1)C(=O)Nc1ccccc1)C(=O)Nc1ccccc1`, for which the TGI in the assay with ACHN renal is above 8.75 µM; in the assay with SF-295 CNS, above 100 µM; with SK-MEL-2 melanoma, above 100 µM; in the assay on SNB-19 CNS it was above 8.75 µM; in the assay on SNB-75 CNS, above 100 µM; in the assay with SK-MEL-5 melanoma, above 100 µM. The TGI is above 8.75 µM with HT29 colon and above 100 µM in the assay on PC-3 prostate. Besides, the GI50 is above 100 µM in the assay with SF-295 CNS; above 100 µM in the assay with SK-MEL-2 melanoma; 59.5 µM in the assay on SNB-75 CNS; above 100 µM in the assay with SK-MEL-5 melanoma; above 100 µM in the assay on PC-3 prostate.
Take `Cc1cc(O)c(C2=NN(c3ccc(S(N)(=O)=O)cc3)C(c3ccccc3Cl)C2)cc1Cl` (stereo unspecified): the GI50 is 3.34 µM in the assay on ACHN renal; 1.59 µM in the assay with SF-295 CNS; 11.9 µM in the assay on SK-MEL-2 melanoma; 3.54 µM in the assay on SNB-19 CNS; 2.23 µM with SNB-75 CNS; 3.85 µM in the assay on SK-MEL-5 melanoma. Besides, the GI50 is 1.92 µM with HT29 colon and 1.58 µM in the assay with PC-3 prostate. Besides, the concentration for total growth inhibition (TGI) in the assay on ACHN renal was found to be 11 µM; in the assay with SF-295 CNS, 3.18 µM; in the assay with SK-MEL-2 melanoma it was 31 µM; in the assay with SNB-19 CNS it was 16.3 µM; in the assay on SNB-75 CNS, 8.83 µM; with SK-MEL-5 melanoma, 12.3 µM. Moreover, the TGI in the assay on HT29 colon amounted to 3.63 µM; in the assay with PC-3 prostate, 3.32 µM.
Take `CCCc1cc(=O)[nH]c(-n2nc(C)cc2C)n1`: the GI50 was 3.97 µM in the assay with ACHN renal; 1.07 µM in the assay on SF-295 CNS; 13 µM with SK-MEL-2 melanoma; 4.5 µM in the assay with SNB-19 CNS; 40.3 µM with SNB-75 CNS; 3.18 µM in the assay on SK-MEL-5 melanoma. For the same compound, the GI50 with HT29 colon is 6.68 µM; with PC-3 prostate it was 4.29 µM. Moreover, the TGI in the assay on ACHN renal is above 100 µM; in the assay with SF-295 CNS, 8.81 µM; in the assay on SK-MEL-2 melanoma it was 63 µM; in the assay on SNB-19 CNS, above 100 µM; in the assay on SNB-75 CNS, above 100 µM; in the assay with SK-MEL-5 melanoma, 47.6 µM. For the same compound, the total growth inhibition concentration (TGI) is 38.5 µM in the assay on HT29 colon and above 100 µM in the assay with PC-3 prostate.
Consider `CCN(Cc1ccc(F)cc1)c1ccc(CO)c(F)c1`, for which the GI50 in the assay on ACHN renal was 14.9 µM; with SF-295 CNS, 5.7 µM; in the assay with SK-MEL-2 melanoma it was 10.5 µM; in the assay with SNB-19 CNS it was 27.3 µM; with SNB-75 CNS, 10 µM; in the assay with SK-MEL-5 melanoma, 10.9 µM. For the same compound, the GI50 with HT29 colon was 16 µM; in the assay on PC-3 prostate, 21.6 µM. Besides, the TGI with ACHN renal is above 100 µM; in the assay on SF-295 CNS it was 31.7 µM; in the assay with SK-MEL-2 melanoma it was 26.8 µM; in the assay on SNB-19 CNS, above 100 µM; in the assay on SNB-75 CNS, above 86.4 µM; in the assay on SK-MEL-5 melanoma it was 24.2 µM. Moreover, the TGI in the assay with HT29 colon is above 53.9 µM; in the assay on PC-3 prostate, 94.6 µM.
For `N.N.N.N.N.[Cl-].[Co+3].c1ccc(-c2nn[n-]n2)cc1`, the GI50 in the assay with ACHN renal, in the assay with SF-295 CNS, in the assay on SK-MEL-2 melanoma, in the assay on DLD-1 colon, in the assay with SNB-19 CNS and with SNB-75 CNS was above 100 µM throughout. Moreover, the GI50 in the assay on SK-MEL-5 melanoma and in the assay on HT29 colon was above 100 µM each time. The TGI with ACHN renal, in the assay with SF-295 CNS, with SK-MEL-2 melanoma, in the assay with DLD-1 colon, in the assay with SNB-19 CNS and in the assay on SNB-75 CNS was above 100 µM throughout. Besides, the TGI in the assay on SK-MEL-5 melanoma and with HT29 colon was above 100 µM each time.
In the case of `CC(=O)OC[C@]12CC[C@@H](C(=O)CBr)[C@@H]1[C@H]1CC[C@@H]3[C@@]4(C)CCCNC(C)(C)[C@@H]4CC[C@@]3(C)[C@]1(C)CC2`, the GI50 with ACHN renal was 2.02 µM; in the assay on SF-295 CNS it was 14.6 µM; in the assay on SK-MEL-2 melanoma, 6.03 µM; in the assay on SNB-19 CNS, 11.5 µM; in the assay with SNB-75 CNS, 15.4 µM; in the assay with SK-MEL-5 melanoma, 4.55 µM. Besides, the results for the GI50 in the assay with HT29 colon and in the assay with PC-3 prostate were 3.07 µM and 1.65 µM, respectively. The TGI is 4.28 µM in the assay with ACHN renal; 28.2 µM in the assay on SF-295 CNS; 20.3 µM with SK-MEL-2 melanoma; 25.2 µM in the assay on SNB-19 CNS; 32.8 µM in the assay with SNB-75 CNS; 15.8 µM with SK-MEL-5 melanoma. The TGI in the assay on HT29 colon was found to be 10.5 µM; in the assay with PC-3 prostate, 3.72 µM.
Regarding `COCC(O)Cn1ccnc1[N+](=O)[O-]` (stereo unspecified), the TGI in the assay on ACHN renal, with SF-295 CNS, in the assay with SK-MEL-2 melanoma, in the assay with M19-MEL melanoma, in the assay on SNB-19 CNS and in the assay with HT29 colon was above 100 µM each time.
As to `O=C(O)C1OC1(c1cccc(Cl)c1)c1ccccc1Cl` (stereo unspecified), the TGI in the assay on ACHN renal was above 100 µM; with SF-295 CNS, 76.5 µM; in the assay with SK-MEL-2 melanoma, 31.2 µM; in the assay on SNB-19 CNS, above 100 µM; in the assay with SNB-75 CNS, 57.6 µM; with SK-MEL-5 melanoma, 35.4 µM. Also, the TGI with HT29 colon was found to be 64.7 µM; with PC-3 prostate, 57.9 µM.
As to `O=c1oc(Cl)c(Cl)c2ccccc12`, the GI50 was 16.1 µM with ACHN renal; 39.4 µM with SF-295 CNS; 14.1 µM in the assay with SK-MEL-2 melanoma; 27.9 µM in the assay with SNB-19 CNS; 24.7 µM in the assay with SNB-75 CNS; 16.5 µM in the assay with SK-MEL-5 melanoma. For the same compound, the GI50 with HT29 colon was 34.9 µM; in the assay on PC-3 prostate, 17.8 µM. Moreover, the TGI in the assay with ACHN renal was 39.7 µM; in the assay on SF-295 CNS, above 100 µM; with SK-MEL-2 melanoma it was 44.1 µM; in the assay with SNB-19 CNS it was above 100 µM; in the assay with SNB-75 CNS it was 59.3 µM; in the assay on SK-MEL-5 melanoma, 37 µM. Further, the TGI was above 100 µM in the assay on HT29 colon and 35.2 µM in the assay on PC-3 prostate.
As to `O=C(O/C(=C(/N=Nc1ccccc1)c1ccccc1)c1ccccc1)c1ccccc1`, the TGI with ACHN renal, in the assay on SF-295 CNS, in the assay on SK-MEL-2 melanoma, in the assay on DLD-1 colon, with SNB-19 CNS and in the assay on SNB-75 CNS was above 100 µM each time. The TGI in the assay with SK-MEL-5 melanoma and in the assay with HT29 colon was above 100 µM in each case.
